Consider one molecule from BindingDB's records for doi:10.1021/jm060193m (Universit&#224, 2006).

In test [1] the target is T1, Integrase (Human immunodeficiency virus 1, UniProt Q7ZJM1). Description: Inhibition of HIV1 integrase strand transfer activity.
The target of test [2] is T1, Integrase. Kind of test: Inhibition of HIV1 integrase 3' processing activity.

T1 sequence (Q7ZJM1 whole entry): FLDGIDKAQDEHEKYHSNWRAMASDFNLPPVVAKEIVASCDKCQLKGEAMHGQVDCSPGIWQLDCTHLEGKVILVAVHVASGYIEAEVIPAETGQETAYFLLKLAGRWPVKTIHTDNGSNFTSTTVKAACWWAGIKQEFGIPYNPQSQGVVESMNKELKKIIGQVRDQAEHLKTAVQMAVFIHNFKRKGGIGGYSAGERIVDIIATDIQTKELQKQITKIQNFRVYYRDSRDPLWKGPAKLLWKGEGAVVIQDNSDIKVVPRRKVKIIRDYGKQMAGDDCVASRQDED

Turning to `COC(=O)C(=O)CC(=O)c1ccccc1`, the IC50 in test [1] and in test [2] was more than 333 µM in each case.
